Measurements published in US11266655B2, “Methods and compositions for treating urea cycle disorders” (Camp4 Therapeutics Corporation, priority 2019, dated 2022).

Tests used:
urea cycle genes = assay: RNA-seq of primary human hepatocytes, compounds that modulate multiple urea cycle-related genes; assay type: cell-based; settings: primary human hepatocytes, RNA-seq; for Up-regulated Genes: urea cycle-related genes significantly increased (Table 10)
OTC [1] = assay: RNA-seq of compound-treated primary human hepatocytes, OTC expression; assay type: cell-based; settings: for Relative OTC level vs Untreated (±Standard Deviation): triplicate (Table 14); for increase in OTC gene expression (Table 14, FIG. 6): Example 11, relative mRNA vs DMSO
OTC [2] = assay: OTC expression modulated by compounds, OTC/GeoMean of housekeeping genes, DMSO = 1 (Table 3A); assay type: cell-based, human; settings: 10 uM final concentration
NAGS = assay type: cell-based, human; settings: primary human hepatocytes, RNA-seq (Table 6)
ASS1 = assay: RNA-seq of compound-treated primary human hepatocytes, ASS1 expression; assay type: cell-based
SLC25A15 = assay: RNA-seq of compound-treated primary human hepatocytes, SLC25A15 expression; assay type: cell-based; settings: for Relative SLC25A15 level vs Untreated (±Standard Deviation): primary human hepatocytes, triplicate (Table 24, FIG. 16A-B)
CPS1 = assay: RNA-seq of compound-treated primary human hepatocytes, CPS1 expression; assay type: cell-based; settings: for increase in CPS1 gene expression (Tables 19, 20, FIG. 11, 12): Example 11, relative mRNA vs DMSO
ASL = assay: RNA-seq of compound-treated primary human hepatocytes, ASL expression; assay type: cell-based; settings: for Relative ASL level vs Untreated (±Standard Deviation): triplicate (Table 25, FIG. 17); for increase in ASL gene expression (Table 25, FIG. 17): Example 11, relative mRNA vs DMSO
ARG1 = assay: RNA-seq of compound-treated primary human hepatocytes, ARG1 expression; assay type: cell-based; settings: for increase in ARG1 gene expression (Tables 17, 18, FIG. 9, 10): Example 11, relative mRNA vs DMSO
[3] = primary human hepatocytes, RNA-seq
[4] = Example 11, relative mRNA vs DMSO
[5] = 0.3 uM, primary human hepatocytes
[6] = 1 uM, primary human hepatocytes
[7] = 3 uM, primary human hepatocytes
[8] = 10 uM, primary human hepatocytes
[9] = 3 uM, primary human hepatocytes, triplicate (Table 20, FIG. 12)
[10] = 10 uM, primary human hepatocytes, triplicate (Table 20, FIG. 12)
[11] = 10 μM, primary human hepatocytes, triplicate (Table 17, FIG. 9)
[12] = 10 uM, primary human hepatocytes, triplicate (Table 18, FIG. 10)
[13] = 10 uM, primary human hepatocytes, triplicate (Table 15, FIG. 8)

## COc1cccc2c1C(=O)c1c(O)c3c(c(O)c1C2=O)C[C@@](O)(/C(CO)=N/NC(=O)CCCCCN1C(=O)C=CC1=O)C[C@@H]3O[C@H]1C[C@H](N)[C@H](O)[C@H](C)O1 [INNO-206 (aldoxorubicin), aldoxorubicin]
Urea cycle genes
  number of urea cycle genes whose expression was significantly up-regulated: three
  Up-regulated Genes: NAGS, ASS1, OTC
OTC [1]; [3]
  OTC expression, Fold change (Log 2) vs untreated: 0.87 Log 2
OTC [2]
  Max Value (OTC/GeoMean of HKs; DMSO = 1): 2.36
NAGS
  Fold change (Log 2) vs untreated, NAGS expression: 1.63 Log 2
ASS1; primary human hepatocytes, RNA-seq (Table 4)
  Fold change (Log 2) vs untreated, ASS1 expression: 0.58 Log 2

## Cc1cc(-c2nc(-c3ccc(OC(F)(F)F)cc3)no2)nn1Cc1ccnc(N2CCN(C3CC3)CC2)c1 [BAY 87-2243]
Urea cycle genes
  number of urea cycle genes whose expression was significantly up-regulated: three
  Up-regulated Genes: CPS1, ASL, ARG1
SLC25A15; 0.3 μM
  Relative SLC25A15 level vs Untreated (±Standard Deviation): 2.85 ± 0.23
SLC25A15; 1 μM
  Relative SLC25A15 level vs Untreated (±Standard Deviation): 2.40 ± 0.22
SLC25A15; 3 μM
  Relative SLC25A15 level vs Untreated (±Standard Deviation): 2.89 ± 0.37
SLC25A15; 10 μM
  Relative SLC25A15 level vs Untreated (±Standard Deviation): 2.70 ± 0.19
SLC25A15; [4]
  Increase in SLC25A15 gene expression (qualitative): greatest increase
OTC [1]; [5]
  Relative OTC level vs Untreated (±Standard Deviation): 3.33 ± 0.60
OTC [1]; [6]
  Relative OTC level vs Untreated (±Standard Deviation): 5.61 ± 3.28
OTC [1]; [7]
  Relative OTC level vs Untreated (±Standard Deviation): 7.03 ± 3.84
OTC [1]; [8]
  Relative OTC level vs Untreated (±Standard Deviation): 6.18 ± 1.58
OTC [1]
  increase in OTC gene expression (Table 14, FIG. 6): greatest increase
CPS1; 0.3 uM, primary human hepatocytes, triplicate (Table 20, FIG. 12)
  Relative CPS1 level vs Untreated (±Standard Deviation): 3.32 ± 0.53
CPS1; 1 uM, primary human hepatocytes, triplicate (Table 20, FIG. 12)
  Relative CPS1 level vs Untreated (±Standard Deviation): 5.11 ± 1.08
CPS1; 3 μM, primary human hepatocytes, triplicate (Table 19, FIG. 11)
  Relative CPS1 level vs Untreated (±Standard Deviation): 1.41 ± 0.06
CPS1; [9]
  Relative CPS1 level vs Untreated (±Standard Deviation): 5.48 ± 3.12
CPS1; [10]
  Relative CPS1 level vs Untreated (±Standard Deviation): 5.69 ± 2.90
CPS1
  increase in CPS1 gene expression (Tables 19, 20, FIG. 11, 12): greatest increase
CPS1; [3]
  CPS1 expression, Fold change (Log 2) vs untreated: 1.81 Log 2
ASL; [5]
  Relative ASL level vs Untreated (±Standard Deviation): 3.02 ± 0.25
ASL; [6]
  Relative ASL level vs Untreated (±Standard Deviation): 7.50 ± 1.10
ASL; [7]
  Relative ASL level vs Untreated (±Standard Deviation): 11.42 ± 6.31
ASL; [8]
  Relative ASL level vs Untreated (±Standard Deviation): 12.28 ± 4.98
ASL
  increase in ASL gene expression (Table 25, FIG. 17): greatest increase
ASL; [3]
  ASL expression, Fold change (Log 2) vs untreated: 0.58 Log 2
ARG1; 0.3 μM, primary human hepatocytes, triplicate (Table 17, FIG. 9)
  Relative ARGI level vs Untreated (±Standard Deviation): 1.36 ± 0.43
ARG1; 1 μM, primary human hepatocytes, triplicate (Table 17, FIG. 9)
  Relative ARGI level vs Untreated (±Standard Deviation): 1.98 ± 0.29
ARG1; 3 μM, primary human hepatocytes, triplicate (Table 17, FIG. 9)
  Relative ARGI level vs Untreated (±Standard Deviation): 2.06 ± 0.19
ARG1; [11]
  Relative ARGI level vs Untreated (±Standard Deviation): 2.03 ± 0.28
ARG1; [12]
  Relative ARGI level vs Untreated (±Standard Deviation): 5.64 ± 3.44
ARG1
  increase in ARG1 gene expression (Tables 17, 18, FIG. 9, 10): greatest increase
ARG1; primary human hepatocytes, RNA-seq (Table 7)
  Fold change (Log 2) vs untreated, ARG1 expression: 1.09 Log 2
ASS1; 0.3 μM, primary human hepatocytes, triplicate (Table 15, FIG. 7)
  Relative ASS1 level vs Untreated (±Standard Deviation): 2.79 ± 0.22
ASS1; 0.3 uM, primary human hepatocytes, triplicate (Table 15, FIG. 8)
  Relative ASS1 level vs Untreated (±Standard Deviation): 2.11 ± 0.33
ASS1; 1 μM, primary human hepatocytes, triplicate (Table 15, FIG. 7)
  Relative ASS1 level vs Untreated (±Standard Deviation): 3.10 ± 0.47
ASS1; 01 uM, primary human hepatocytes, triplicate (Table 15, FIG. 8)
  Relative ASS1 level vs Untreated (±Standard Deviation): 2.61 ± 0.57
ASS1; 3 μM, primary human hepatocytes, triplicate (Table 15, FIG. 7)
  Relative ASS1 level vs Untreated (±Standard Deviation): 2.38 ± 0.01
ASS1; 03 uM, primary human hepatocytes, triplicate (Table 15, FIG. 8)
  Relative ASS1 level vs Untreated (±Standard Deviation): 2.87 ± 1.80
ASS1; 10 μM, primary human hepatocytes, triplicate (Table 15, FIG. 7)
  Relative ASS1 level vs Untreated (±Standard Deviation): 2.99 ± 0.36
ASS1; [13]
  Relative ASS1 level vs Untreated (±Standard Deviation): 2.86 ± 1.48
ASS1; [4]
  increase in ASS1 gene expression (Tables 15, 16, FIG. 7, 8): greatest increase

## CSCC[C@H](N)C(=O)N[C@@]1(C(=O)O)CS(=O)(=O)[C@H]2[C@H](C(=O)O)[C@H]21 [pomaglumetad methionil]
OTC [2]
  Max Value (OTC/GeoMean of HKs; DMSO = 1): 1.49

## CN(c1ncccc1CNc1nc(Nc2ccc3c(c2)CC(=O)N3)ncc1C(F)(F)F)S(C)(=O)=O [PF-00562271]
OTC [1]; [7]
  Relative OTC level vs Untreated (±Standard Deviation): 3.27 ± 0.59
OTC [1]; [8]
  Relative OTC level vs Untreated (±Standard Deviation): 7.05 ± 1.14
OTC [1]
  increase in OTC gene expression (Table 14, FIG. 6): greatest increase
OTC [2]
  Max Value (OTC/GeoMean of HKs; DMSO = 1): 3.3
CPS1; [9]
  Relative CPS1 level vs Untreated (±Standard Deviation): 2.33 ± 0.58
CPS1; [10]
  Relative CPS1 level vs Untreated (±Standard Deviation): 4.70 ± 0.49
CPS1
  increase in CPS1 gene expression (Tables 19, 20, FIG. 11, 12): greatest increase
ASL; [7]
  Relative ASL level vs Untreated (±Standard Deviation): 2.09 ± 0.67
ASL; [8]
  Relative ASL level vs Untreated (±Standard Deviation): 4.92 ± 1.05
ASL
  increase in ASL gene expression (Table 25, FIG. 17): greatest increase
ARG1; [11]
  Relative ARGI level vs Untreated (±Standard Deviation): 1.32 ± 0.33
ARG1; [12]
  Relative ARGI level vs Untreated (±Standard Deviation): 2.53 ± 0.36
ARG1
  increase in ARG1 gene expression (Tables 17, 18, FIG. 9, 10): greatest increase
ASS1; [13]
  Relative ASS1 level vs Untreated (±Standard Deviation): 2.30 ± 0.41

## O=C(NCCCNc1nc(Nc2cccc(CN3CCOCC3)c2)ncc1C1CC1)C1CCC1 [MRT67307]
OTC [2]
  Max Value (OTC/GeoMean of HKs; DMSO = 1): 1.68
